According to patent US5760092A, “Allocolchinones and uses thereof” (Brandeis University, priority 1996, dated 1998):
Values joined by “and” are separate entries in the source; they are usually repeats but may differ in a detail not shown here. Equal values may be shown once. “Also recorded” adds a separate entry of the source. Read-outs that look alike come from different tables or passages of the source.

Key:
[1] = tested on: OVCAR-3 ovarian cancer cells; assay: cells; details: Homo sapiens
A498 renal cancer cells [2] = tested on: A498 renal cancer cells
[3] = tested on: RXF-393 renal cancer cells
[4] = tested on: HS 578T breast cancer cells
tubulin = assay type: biochemical, calf; details: in vitro; read-out: LC50 (inhibition of microtubule assembly in vitro)
[5] = tested on: HOP-62 non-small cell lung cancer cells
[6] = tested on: HOP-62 non-small cell lung cancer cells; assay: cells; details: Homo sapiens
[7] = tested on: SK-OV-3 ovarian cancer cells; assay: cells; details: Homo sapiens
[8] = tested on: SK-OV-3 ovarian cancer cells
[9] = tested on: OVCAR-8 ovarian cancer cells
[10] = tested on: HOP-92 non-small cell lung cancer cells; assay: cells; details: Homo sapiens
[11] = tested on: OVCAR-3 ovarian cancer cells
[12] = tested on: RXF-393 renal cancer cells; assay: cells; details: Homo sapiens; for GI50: RXF 393; for activity at 10 µM: RXF 393, read-out: Percent Growth, log10 conc -5.0; for activity at 1 µM: RXF 393, read-out: Percent Growth, log10 conc -6.0; for activity at 0.1 µM: RXF 393, read-out: Percent Growth, log10 conc -7.0; for activity at 0.01 µM: RXF 393, read-out: Percent Growth, log10 conc -8.0
[13] = tested on: MCF7/ADR-RES breast cancer cells; assay: cells; assay type: cell-based
SF-295 CNS cancer cells [14] = tested on: SF-295 CNS cancer cells
[15] = tested on: CAKI-1 renal cancer cells; assay: cells; details: Homo sapiens
[16] = tested on: HS 578T breast cancer cells; assay: cells; details: Homo sapiens
SF-295 CNS cancer cells [17] = assay: cells; details: Homo sapiens
tumor cell lines = assay: cells; assay type: cell-based
[18] = tested on: HOP-92 non-small cell lung cancer cells
A498 renal cancer cells [19] = assay: cells; details: Homo sapiens

SMILES: CCCC(=O)NC1CCc2cc(OC)c(OC)c(OC)c2-c2ccc(C(C)=O)cc21 (centres unmarked)
- GI50 ([1]; OVCAR-3): < 10 nM
- CC50 ([1]; OVCAR-3, read-out: LC50): > 100000 nM
- GI50 (A498 renal cancer cells [2]): < 10 nM
- CC50 (A498 renal cancer cells [2]; human, a498 renal cancer cells): > 100000 nM
- Percent Growth (A498 renal cancer cells [2]; log10 conc -6.0, 1 µM): -40%
- Percent Growth (A498 renal cancer cells [2]; log10 conc -8.0): 13%
- TGI [3]: > 100000 nM
- Percent Growth ([3]; log10 conc -5.0, 10 µM): 26%
- Percent Growth ([3]; log10 conc -6.0, 1 µM): 40%
- Percent Growth ([3]; log10 conc -8.0, 0.01 µM): 29%
- TGI [4]: > 100000 nM
- Percent Growth ([4]; log10 conc -5.0, 10 µM): 41%
- Percent Growth ([4]; log10 conc -6.0, 1 µM): 43%
- Percent Growth ([4]; log10 conc -7.0, 0.1 µM): 31%
- IC50 (tubulin): 600 nM
- TGI [5]: > 100000 nM
- Percent Growth ([5]; log10 conc -4.0, 100 µM): 34%
- Percent Growth ([5]; log10 conc -5.0, 10 µM): 44%
- Percent Growth ([5]; log10 conc -6.0, 1 µM): 34%
- Percent Growth ([5]; log10 conc -7.0, 0.1 µM): 25% and 46%
- GI50 ([6]; HOP-62): < 10 nM
- CC50 ([6]; HOP-62, read-out: LC50): > 100000 nM
- activity at 100 µM ([6]; HOP-62, read-out: Percent Growth, log10 conc -4.0): 43%
- activity at 10 µM ([6]; HOP-62, read-out: Percent Growth, log10 conc -5.0): 41%
- activity at 1 µM ([6]; HOP-62, read-out: Percent Growth, log10 conc -6.0): 36%
- GI50 (MOLT-4 leukemia cells): < 10 nM
- TGI (MOLT-4 leukemia cells): > 100000 nM
- CC50 (MOLT-4 leukemia cells; human, molt-4 leukemia cells): > 100000 nM
- Percent Growth (MOLT-4 leukemia cells; log10 conc -4.0, 100 µM): 2% and 6%
- Percent Growth (MOLT-4 leukemia cells; log10 conc -5.0): 9%
- Percent Growth (MOLT-4 leukemia cells; log10 conc -6.0, 1 µM): 12% and 8%
- Percent Growth (MOLT-4 leukemia cells; log10 conc -7.0, 0.1 µM): 12% and 8%
- Percent Growth (MOLT-4 leukemia cells; log10 conc -8.0, 0.01 µM): 16% and 9%
- GI50 ([7]; SK-OV-3): < 10 nM
- CC50 ([7]; SK-OV-3, read-out: LC50): > 100000 nM
- Percent Growth ([8]; log10 conc -5.0): -19%
- Percent Growth ([8]; log10 conc -7.0, 0.1 µM): 3%
- GI50 [9]: < 10 nM
- TGI [9]: > 10 nM
- CC50 ([9]; human, ovcar-8 ovarian cancer cells): > 100000 nM
- GI50 (SF-539 CNS cancer cells): < 10 nM
- TGI (SF-539 CNS cancer cells): 12.9 nM
- CC50 (SF-539 CNS cancer cells; human, sf-539 cns cancer cells): > 100000 nM
- Percent Growth (SF-539 CNS cancer cells; log10 conc -4.0, 100 µM): -8% and 1%
- Percent Growth (SF-539 CNS cancer cells; log10 conc -5.0, 10 µM): -13% and -12%
- Percent Growth (SF-539 CNS cancer cells; log10 conc -6.0, 1 µM): -8% and -16%
- Percent Growth (SF-539 CNS cancer cells; log10 conc -7.0, 0.1 µM): -13% and -11%
- Percent Growth (SF-539 CNS cancer cells; log10 conc -8.0): 2%
- Percent Growth (SF-539 CNS cancer cells; log10 conc -8.0, 0.01 µM): -8%
- GI50 (SF-268 CNS cancer cells): < 10 nM
- CC50 (SF-268 CNS cancer cells; human, sf-268 cns cancer cells): > 100000 nM
- Percent Growth (SF-268 CNS cancer cells; log10 conc -5.0, 10 µM): 14% and 25%
- Percent Growth (SF-268 CNS cancer cells; log10 conc -6.0, 1 µM): 18% and 30%
- Percent Growth (SF-268 CNS cancer cells; log10 conc -7.0, 0.1 µM): 29% and 31%
- Percent Growth (SF-268 CNS cancer cells; log10 conc -8.0, 0.01 µM): 43% and 32%
- GI50 ([10]; HOP-92): 17.6 nM
- CC50 ([10]; HOP-92, read-out: LC50): > 100000 nM
- TGI [11]: < 10 nM
- Percent Growth ([11]; log10 conc -4.0, 100 µM): -30%
- Percent Growth ([11]; log10 conc -5.0): -21%
- Percent Growth ([11]; log10 conc -7.0, 0.1 µM): -12%
- Percent Growth ([11]; log10 conc -8.0, 0.01 µM): -16% and -19%
- GI50 (SNB-19 CNS cancer cells): < 10 nM
- CC50 (SNB-19 CNS cancer cells; human, snb-19 cns cancer cells): > 100000 nM
- Percent Growth (SNB-19 CNS cancer cells; log10 conc -4.0, 100 µM): 19%
- Percent Growth (SNB-19 CNS cancer cells; log10 conc -6.0, 1 µM): 13% and 26%
- Percent Growth (SNB-19 CNS cancer cells; log10 conc -8.0, 0.01 µM): 18% and 25%
- GI50 [12]: < 10 nM
- CC50 ([12]; RXF 393, read-out: LC50): > 100000 nM
- activity at 10 µM [12]: 30%
- activity at 1 µM [12]: 39%
- activity at 0.1 µM [12]: 36%
- activity at 0.01 µM [12]: 18%
- GI50 ([13]; Homo sapiens, MCF7): < 10 nM
- Percent Growth ([13]; log10 conc -4.0, 100 µM): -22% and -23%
- TGI (SF-295 CNS cancer cells [14]): > 100000 nM
- Percent Growth (SF-295 CNS cancer cells [14]; log10 conc -4.0, 100 µM): 19%
- Percent Growth (SF-295 CNS cancer cells [14]; log10 conc -5.0, 10 µM): 12%
- GI50 (SNB-75 CNS cancer cells): < 10 nM
- CC50 (SNB-75 CNS cancer cells; human, snb-75 cns cancer cells): > 100000 nM
- Percent Growth (SNB-75 CNS cancer cells; log10 conc -4.0, 100 µM): 18%
- Percent Growth (SNB-75 CNS cancer cells; log10 conc -8.0): -28%
- GI50 ([15]; CAKI-1): < 10 nM
- CC50 ([15]; CAKI-1, read-out: LC50): > 100000 nM
- GI50 [16]: < 10 nM
- CC50 ([16]; read-out: LC50): > 100000 nM
- activity at 100 µM ([16]; read-out: Percent Growth, log10 conc -4.0): 6%
- activity at 10 µM ([16]; read-out: Percent Growth, log10 conc -5.0): 26%
- activity at 1 µM ([16]; read-out: Percent Growth, log10 conc -6.0): 26%
- activity at 0.1 µM ([16]; read-out: Percent Growth, log10 conc -7.0): 22%
- GI50 (SF-295 CNS cancer cells [17]; SF-295): < 10 nM
- CC50 (SF-295 CNS cancer cells [17]; SF-295, read-out: LC50): > 100000 nM
- activity at 100 µM (SF-295 CNS cancer cells [17]; SF-295, read-out: Percent Growth, log10 conc -4.0): 21%
- activity at 10 µM (SF-295 CNS cancer cells [17]; SF-295, read-out: Percent Growth, log10 conc -5.0): 10%
- GI50 (tumor cell lines): < 10 nM
- activity in the NCI screen (tumor cell lines): activity similar to 7-acetamidoallocolchinone; also recorded: active
- GI50 [18]: < 10 nM
- TGI [18]: > 100000 nM
- GI50 (A498 renal cancer cells [19]; A498): 10.4 nM
- CC50 (A498 renal cancer cells [19]; A498, read-out: LC50): 50000 nM
- GI50 (U251 CNS cancer cells): < 10 nM
- CC50 (U251 CNS cancer cells; human, u251 cns cancer cells): > 100000 nM
- Percent Growth (U251 CNS cancer cells; log10 conc -5.0): 5%
- Percent Growth (U251 CNS cancer cells; log10 conc -6.0, 1 µM): 16% and 7%
- Percent Growth (U251 CNS cancer cells; log10 conc -7.0, 0.1 µM): -16%
- Percent Growth (U251 CNS cancer cells; log10 conc -8.0, 0.01 µM): 1% and 4%

SMILES: COc1cc2c(c(OC)c1OC)-c1ccc(C(C)=O)cc1C(N)CC2 (centres unmarked) [7-Amino-allocolchinone]
- IC50 (tubulin): 3000 nM

SMILES: COc1cc2c(c(OC)c1OC)-c1ccc(OC)c(=O)cc1[C@@H](NC(C)=O)CC2 [Colchicine, reference compound]
- GI50 (MOLT-4 leukemia cells): 35.6 nM
- Percent Growth (MOLT-4 leukemia cells; log10 conc -4.0, 100 µM): 1%
- Percent Growth (MOLT-4 leukemia cells; log10 conc -5.0): 0%
- Percent Growth (MOLT-4 leukemia cells; log10 conc -6.0, 1 µM): 1%
- Percent Growth (MOLT-4 leukemia cells; log10 conc -8.0): 98%
- Percent Growth ([9]; log10 conc -4.0, 100 µM): -39%
- Percent Growth ([9]; log10 conc -8.0): 99%
- GI50 [12]: < 10 nM
- activity at 10 µM [12]: 13%
- activity at 1 µM [12]: 9%
- activity at 0.1 µM [12]: 7%
- activity at 0.01 µM [12]: 48%
